The values that follow come from patent publication US20230013244A1 (BioIncept, LLC, priority 2014, published 2023).

Experiment [1] relates to PBMCs (CD3+, CD4+/CD25+/FoxP3+, CD8+/CD25+ cells). Kind of experiment: FITC-PIF binding to naive T-cell subsets of PBMCs, two- and three-color flow cytometry. It is filed as cell-based, human. In general terms: A flow cytometer gives signals particle by particle.
Another experiment has as its system Granulocytes. In words: FITC-PIF binding to mare immune cells, flow cytometry, granulocytes. In kind it is cell-based. The source says: (§1) Method: whole blood was collected from jugular vein of pregnant (n=4) and non-pregnant (n=8) mares into lithium heparin vacutainers. Whole blood was layered over histopaque (Sigma) density gradient and red cells were allowed to settle through the gradient, leaving a leukocyte-rich plasma layer above. Cells were washed twice in sterile PBS and any remaining RBCs lysed with 0.16 M ammonium chloride solution. […] Cell types were separated based upon their scatter characteristics. […] FIG. 20 and Table 20 show mean+/−SEM in both pregnant and non-pregnant mares, and depicts binding characteristics showing significant differences between FITC-PIF and control, P<0.001.

Another experiment concerns Lymphocytes. Kind of experiment: FITC-PIF binding to mare immune cells, flow cytometry, lymphocytes. It is filed as cell-based.
From the text: as §1

Another experiment relates to Monocytes. Kind of experiment: FITC-PIF binding to mare immune cells, flow cytometry, monocytes. It is filed as cell-based.
From the text: as §1

Take “GRVDPSNKSMPKDIA [PIFscr, scrambled PIF, control peptide]”: the “binding to CD4+/CD25+/FoxP3+ cells” value in experiment [1] (0-100 uM) is listed as “minimal binding”. The “binding to CD3+/CD4+ cells” value in experiment [1] (FIG. 10A) was “not replicated”. For the same sequence, the “binding to Granulocytes, Mean” value in the experiment on Granulocytes (Non-pregnant mares, 1 ug/ml) worked out at 0.26; with Granulocytes (Pregnant mares, 1 ug/ml), 0.09; in the experiment on Granulocytes (Pregnant mares, 5 ug/ml), 0.93. Moreover, the “binding to Lymphocytes, Mean” value in the experiment with Lymphocytes (Non-pregnant mares, 1 ug/ml) turned out to be 0.27; in the experiment on Lymphocytes (Pregnant mares, 1 ug/ml), 0.12; in the experiment on Lymphocytes (Pregnant mares, 5 ug/ml) it was 0.78. In addition, the “binding to Monocytes, Mean” value with Monocytes (Non-pregnant mares, 1 ug/ml) turned out to be 1.10; with Monocytes (Non-pregnant mares, 5 ug/ml), 5.20; in the experiment on Monocytes (Pregnant mares, 1 ug/ml) it was 0.78.
